Results as given in ChEMBL document CHEMBL1201862, “PubChem BioAssay data set” (2004).
Calls of active or inactive are those of the source.

Legend:
[1] = molecular target: Dual specificity tyrosine-phosphorylation-regulated kinase 1A (Rattus norvegicus, UniProt Q63470); format: biochemical, Homo sapiens
[2] = molecular target: T1, DNA repair protein RAD52 homolog (Homo sapiens, UniProt P43351); format: functional, biochemical
T1 sequence (P43351 whole entry): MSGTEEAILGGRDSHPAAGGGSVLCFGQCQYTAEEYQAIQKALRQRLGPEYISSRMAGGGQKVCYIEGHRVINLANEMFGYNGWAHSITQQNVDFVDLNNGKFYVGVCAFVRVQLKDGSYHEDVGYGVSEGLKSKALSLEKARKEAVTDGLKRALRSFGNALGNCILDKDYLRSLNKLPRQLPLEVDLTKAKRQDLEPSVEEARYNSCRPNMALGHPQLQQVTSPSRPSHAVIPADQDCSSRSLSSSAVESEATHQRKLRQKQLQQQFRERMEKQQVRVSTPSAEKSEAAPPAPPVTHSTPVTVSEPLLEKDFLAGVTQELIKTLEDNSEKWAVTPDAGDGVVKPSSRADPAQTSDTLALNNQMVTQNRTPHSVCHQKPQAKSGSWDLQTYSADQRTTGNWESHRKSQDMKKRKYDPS

[3] = test system: HEK293; assay: EBV LMP1 TES2 canonical NF-kB signalling blockers – cell-based, HEK293, luciferase, cherry-pick, dose response (AID 588343); format: functional; conditions: Homo sapiens
[4] = molecular target: T2, DNA repair and recombination protein RAD54-like (Homo sapiens, UniProt Q92698); assay: RAD54 Holliday junction migration blockers – biochemical, fluorescence, cherry-picked samples, dose series, confirmation (AID 651657); format: functional
T2 sequence (Q92698 whole entry): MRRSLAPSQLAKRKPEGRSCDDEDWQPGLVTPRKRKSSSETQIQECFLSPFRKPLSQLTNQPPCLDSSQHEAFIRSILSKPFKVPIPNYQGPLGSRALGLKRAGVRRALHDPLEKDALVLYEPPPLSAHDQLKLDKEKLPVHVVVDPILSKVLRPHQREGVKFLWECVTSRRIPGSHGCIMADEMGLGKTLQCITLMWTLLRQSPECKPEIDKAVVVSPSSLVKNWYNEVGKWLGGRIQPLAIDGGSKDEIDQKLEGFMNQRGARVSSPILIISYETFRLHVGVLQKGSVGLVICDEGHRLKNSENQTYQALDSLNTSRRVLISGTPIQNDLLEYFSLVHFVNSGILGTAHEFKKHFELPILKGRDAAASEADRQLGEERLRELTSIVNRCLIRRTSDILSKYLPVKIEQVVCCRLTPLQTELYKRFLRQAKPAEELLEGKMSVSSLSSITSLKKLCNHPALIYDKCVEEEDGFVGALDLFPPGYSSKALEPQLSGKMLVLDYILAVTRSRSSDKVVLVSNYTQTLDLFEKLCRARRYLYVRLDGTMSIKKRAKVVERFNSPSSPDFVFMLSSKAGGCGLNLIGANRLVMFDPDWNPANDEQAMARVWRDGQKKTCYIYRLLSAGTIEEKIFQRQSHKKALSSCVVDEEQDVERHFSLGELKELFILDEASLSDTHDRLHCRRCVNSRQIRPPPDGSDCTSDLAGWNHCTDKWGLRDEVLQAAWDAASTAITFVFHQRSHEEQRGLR

[5] = Luminescence Cell-Based Dose Confirmation HTS to Identify Inhibitors of Platelet Dense Granule Release. [Related pubchem assays: 1663 (Primary HTS), 1678 (Summary of Project)]; format: functional
[6] = molecular target: Luciferin 4-monooxygenase (Photinus pyralis, UniProt P08659); assay: inhibition of purified Photinus pyralis luciferase – biochemical, luminescence, dose response (AID 1891)
Chain of Luciferin 4-monooxygenase (P08659 whole entry): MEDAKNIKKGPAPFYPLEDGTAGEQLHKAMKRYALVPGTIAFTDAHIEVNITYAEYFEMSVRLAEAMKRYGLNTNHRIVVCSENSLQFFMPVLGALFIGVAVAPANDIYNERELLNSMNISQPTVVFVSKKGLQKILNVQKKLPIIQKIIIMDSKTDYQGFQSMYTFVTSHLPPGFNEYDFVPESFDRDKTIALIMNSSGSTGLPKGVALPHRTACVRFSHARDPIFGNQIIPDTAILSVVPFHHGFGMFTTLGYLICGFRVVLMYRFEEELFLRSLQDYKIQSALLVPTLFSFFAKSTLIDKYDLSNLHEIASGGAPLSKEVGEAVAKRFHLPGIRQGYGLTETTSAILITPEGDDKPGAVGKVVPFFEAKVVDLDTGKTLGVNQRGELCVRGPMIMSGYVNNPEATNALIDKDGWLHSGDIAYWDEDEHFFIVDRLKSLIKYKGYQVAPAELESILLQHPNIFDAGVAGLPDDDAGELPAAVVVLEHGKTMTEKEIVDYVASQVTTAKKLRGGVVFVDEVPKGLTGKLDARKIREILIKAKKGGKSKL

[7] = molecular target: Phospholipase A2 (Homo sapiens, UniProt P04054); format: functional;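 also: confirmatory dose-response counterscreen on phospholipase A2, testing hits that came from an ultra-high-throughput screen for ATG4B inhibitors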
Chain of Phospholipase A2 (P04054 whole entry): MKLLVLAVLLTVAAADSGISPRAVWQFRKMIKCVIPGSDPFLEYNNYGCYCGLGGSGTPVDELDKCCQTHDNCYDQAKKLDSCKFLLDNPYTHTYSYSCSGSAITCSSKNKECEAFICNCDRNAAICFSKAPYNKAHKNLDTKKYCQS

[8] = molecular target: Cysteine protease ATG4B (Homo sapiens, UniProt Q9Y4P1); format: functional;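 also: Fluorescence-based dose-response confirmation assay measuring inhibition of ATG4B activity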
Chain of Cysteine protease ATG4B (Q9Y4P1 whole entry): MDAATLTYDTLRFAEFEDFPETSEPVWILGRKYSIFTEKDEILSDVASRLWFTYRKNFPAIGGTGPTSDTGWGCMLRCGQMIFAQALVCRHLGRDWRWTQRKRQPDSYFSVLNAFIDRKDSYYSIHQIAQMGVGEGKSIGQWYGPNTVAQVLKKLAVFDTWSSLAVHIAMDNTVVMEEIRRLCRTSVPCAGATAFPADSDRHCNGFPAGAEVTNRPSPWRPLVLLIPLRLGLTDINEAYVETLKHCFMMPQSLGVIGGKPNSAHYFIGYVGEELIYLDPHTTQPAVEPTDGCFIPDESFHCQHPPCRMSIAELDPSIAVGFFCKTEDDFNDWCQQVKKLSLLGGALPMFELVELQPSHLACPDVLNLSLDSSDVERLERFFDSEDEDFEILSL

[9] = molecular target: Serine/threonine-protein phosphatase (Candida dubliniensis (strain CD36 / CBS 7987 / NCPF 3949 / NRRLY-17841) (Yeast), UniProt B9W6M3); assay: blockers of CaCl2-induced CDRE-lacZ signaling – S. cerevisiae, luminescence, secondary, dose response (AID 2388); format: functional, cell-based;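 also: yeast reporter cells carrying a calcineurin-responsive lacZ construct stimulated with calcium chloride; luminescent beta-galactosidase reporter signal in whole cells rather than isolated phosphatase activity; potency for inhibition where a drop in reporter signal means calcineurin blockade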
Chain of Serine/threonine-protein phosphatase (B9W6M3 whole entry): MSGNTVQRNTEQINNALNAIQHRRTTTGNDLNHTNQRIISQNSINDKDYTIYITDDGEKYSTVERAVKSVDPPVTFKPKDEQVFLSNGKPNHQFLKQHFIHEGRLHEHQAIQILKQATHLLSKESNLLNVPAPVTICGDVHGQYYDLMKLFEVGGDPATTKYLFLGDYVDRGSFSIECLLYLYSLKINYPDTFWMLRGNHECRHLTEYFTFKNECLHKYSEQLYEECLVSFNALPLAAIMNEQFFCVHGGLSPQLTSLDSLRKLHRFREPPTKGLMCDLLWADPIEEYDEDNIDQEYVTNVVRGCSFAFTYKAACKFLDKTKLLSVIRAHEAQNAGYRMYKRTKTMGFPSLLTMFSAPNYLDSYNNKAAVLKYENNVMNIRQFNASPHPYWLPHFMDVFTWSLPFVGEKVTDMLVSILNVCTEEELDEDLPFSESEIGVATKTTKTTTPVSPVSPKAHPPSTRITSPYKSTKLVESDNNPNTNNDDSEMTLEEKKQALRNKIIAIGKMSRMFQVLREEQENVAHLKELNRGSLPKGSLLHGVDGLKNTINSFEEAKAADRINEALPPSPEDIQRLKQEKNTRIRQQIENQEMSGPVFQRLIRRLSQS

[10] = molecular target: ATP-dependent molecular chaperone HSP82 (Candida albicans (strain WO-1) (Yeast), UniProt C4YTQ8); assay: steroid-induced GRE reporter decrease in yeast – S. cerevisiae, luminescence, Hsp90 inhibitor project, dose response (AID 2400); format: functional, cell-based;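 also: beta-galactosidase luminescence from glucocorticoid response element reporter as proxy for Hsp90 function; inhibitor potency where signal loss means Hsp90 inhibition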
Chain of ATP-dependent molecular chaperone HSP82 (C4YTQ8 whole entry): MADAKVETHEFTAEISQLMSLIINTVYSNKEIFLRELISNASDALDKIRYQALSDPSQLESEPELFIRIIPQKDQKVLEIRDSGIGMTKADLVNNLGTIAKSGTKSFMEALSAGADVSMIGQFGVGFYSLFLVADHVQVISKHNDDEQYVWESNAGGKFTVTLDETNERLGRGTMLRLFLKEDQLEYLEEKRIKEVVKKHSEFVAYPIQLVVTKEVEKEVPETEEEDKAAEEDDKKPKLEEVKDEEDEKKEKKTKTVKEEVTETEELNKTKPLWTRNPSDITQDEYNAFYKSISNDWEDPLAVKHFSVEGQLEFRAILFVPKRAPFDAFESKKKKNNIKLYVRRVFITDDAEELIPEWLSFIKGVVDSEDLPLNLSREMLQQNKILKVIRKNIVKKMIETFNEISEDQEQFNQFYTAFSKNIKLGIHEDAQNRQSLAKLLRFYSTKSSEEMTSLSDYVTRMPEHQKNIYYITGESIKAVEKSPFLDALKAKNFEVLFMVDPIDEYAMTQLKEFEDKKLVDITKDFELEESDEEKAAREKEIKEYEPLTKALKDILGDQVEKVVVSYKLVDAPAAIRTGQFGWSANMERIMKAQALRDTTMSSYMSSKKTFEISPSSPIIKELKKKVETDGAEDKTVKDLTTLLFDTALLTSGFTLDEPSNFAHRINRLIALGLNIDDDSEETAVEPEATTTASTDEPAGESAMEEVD

[11] = molecular target: T3, Leucine aminopeptidase (Plasmodium falciparum 3D7, UniProt Q8IL11); assay: P. falciparum M17LAP inhibitors, primary screen, biochemical, fluorogenic H-Leu-NHMec substrate, 1536-well (AID 1619); format: functional
T3 sequence (Q8IL11 whole entry): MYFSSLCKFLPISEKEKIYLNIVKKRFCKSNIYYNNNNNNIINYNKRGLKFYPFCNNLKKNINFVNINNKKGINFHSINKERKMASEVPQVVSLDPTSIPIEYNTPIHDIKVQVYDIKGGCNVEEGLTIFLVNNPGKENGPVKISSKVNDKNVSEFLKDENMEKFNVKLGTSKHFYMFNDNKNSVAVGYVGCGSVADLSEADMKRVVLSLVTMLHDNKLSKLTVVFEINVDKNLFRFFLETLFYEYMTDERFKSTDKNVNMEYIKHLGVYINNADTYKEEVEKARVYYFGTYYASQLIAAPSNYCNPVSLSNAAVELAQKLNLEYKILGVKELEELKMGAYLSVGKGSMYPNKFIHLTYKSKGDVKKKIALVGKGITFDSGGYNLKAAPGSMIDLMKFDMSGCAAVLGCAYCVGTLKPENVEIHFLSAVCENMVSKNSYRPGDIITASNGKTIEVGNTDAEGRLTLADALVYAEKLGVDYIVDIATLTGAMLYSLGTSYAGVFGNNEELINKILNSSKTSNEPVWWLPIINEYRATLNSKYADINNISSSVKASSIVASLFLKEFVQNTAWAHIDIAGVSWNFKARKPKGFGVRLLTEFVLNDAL

[12] = molecular target: T4, Hexokinase HKDC1 (Homo sapiens, UniProt Q2TB90); assay: inhibition of HKDC1 glucose phosphorylation – biochemical, W721R variant, dose response (AID 504729); format: functional
T4 sequence (Q2TB90 whole entry): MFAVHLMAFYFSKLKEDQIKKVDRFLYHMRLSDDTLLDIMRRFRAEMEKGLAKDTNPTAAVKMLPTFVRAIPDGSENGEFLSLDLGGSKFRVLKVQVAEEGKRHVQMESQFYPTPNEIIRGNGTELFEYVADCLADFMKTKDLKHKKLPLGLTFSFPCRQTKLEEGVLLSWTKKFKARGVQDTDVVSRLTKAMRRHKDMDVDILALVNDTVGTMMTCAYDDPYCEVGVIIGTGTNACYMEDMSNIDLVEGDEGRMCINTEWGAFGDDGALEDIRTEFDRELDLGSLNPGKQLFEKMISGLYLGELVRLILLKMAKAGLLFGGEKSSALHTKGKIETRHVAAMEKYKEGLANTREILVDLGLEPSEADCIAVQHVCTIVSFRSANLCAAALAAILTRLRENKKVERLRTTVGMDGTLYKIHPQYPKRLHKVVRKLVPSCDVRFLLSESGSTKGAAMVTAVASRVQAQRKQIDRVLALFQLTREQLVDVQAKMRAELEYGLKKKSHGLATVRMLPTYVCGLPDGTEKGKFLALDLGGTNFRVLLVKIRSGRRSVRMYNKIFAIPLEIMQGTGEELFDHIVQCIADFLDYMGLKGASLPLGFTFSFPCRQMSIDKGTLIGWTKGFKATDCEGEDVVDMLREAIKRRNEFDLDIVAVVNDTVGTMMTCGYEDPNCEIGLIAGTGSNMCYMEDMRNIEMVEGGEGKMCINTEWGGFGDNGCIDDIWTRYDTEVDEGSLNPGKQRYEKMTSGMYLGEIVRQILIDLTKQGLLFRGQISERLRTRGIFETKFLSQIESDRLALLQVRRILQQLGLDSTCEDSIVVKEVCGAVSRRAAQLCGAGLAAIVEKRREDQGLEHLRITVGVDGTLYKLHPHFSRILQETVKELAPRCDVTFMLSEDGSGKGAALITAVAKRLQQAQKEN

[13] = NIH3T3 cell viability loss – ATP luminescence, mouse fibroblasts, counter-screen, dose response (AID 2010); format: functional, cell-based;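 also: cells exposed to compound for about 90 hours before reading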
[14] = test system: Vero; assay: viability of Vero cells under compound – cytotoxicity control for flavivirus capping enzyme inhibitors (AID 588742); format: functional; conditions: Chlorocebus sabaeus
[15] = molecular target: T5, Rac GTPase-activating protein 1 (Homo sapiens, UniProt Q9H0H5); assay: blockers of MgcRacGAP-driven Rac1 GTP hydrolysis – biochemical, ADP Hunter fluorescence, primary and confirmatory, confirmation (AID 624330); format: functional
T5 sequence (Q9H0H5 whole entry): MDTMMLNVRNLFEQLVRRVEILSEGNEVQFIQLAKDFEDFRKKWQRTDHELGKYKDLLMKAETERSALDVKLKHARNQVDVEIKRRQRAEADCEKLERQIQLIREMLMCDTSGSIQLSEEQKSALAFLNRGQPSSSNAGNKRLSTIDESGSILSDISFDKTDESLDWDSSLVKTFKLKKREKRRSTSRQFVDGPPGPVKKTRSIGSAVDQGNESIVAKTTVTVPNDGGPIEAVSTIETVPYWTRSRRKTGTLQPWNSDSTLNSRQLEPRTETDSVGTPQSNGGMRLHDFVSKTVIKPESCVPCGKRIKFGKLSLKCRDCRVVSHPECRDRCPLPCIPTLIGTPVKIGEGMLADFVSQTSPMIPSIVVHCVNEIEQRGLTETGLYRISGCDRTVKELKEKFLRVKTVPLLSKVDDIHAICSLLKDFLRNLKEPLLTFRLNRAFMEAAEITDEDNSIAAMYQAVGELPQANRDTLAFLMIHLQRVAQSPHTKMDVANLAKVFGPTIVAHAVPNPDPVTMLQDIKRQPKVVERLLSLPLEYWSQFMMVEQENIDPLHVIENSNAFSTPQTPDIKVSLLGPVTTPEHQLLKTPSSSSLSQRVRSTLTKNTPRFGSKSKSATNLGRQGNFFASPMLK

[16] = Trypanosoma cruzi growth suppression in host cells – NIH3T3 host cells, beta-gal luminescence, confirmation (AID 2044); format: functional, cell-based;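 also: intracellular parasites grown in NIH/3T3 mouse fibroblasts as host cells; luminescent beta-galactosidase reporter signal from transgenic T. cruzi replicating inside host cells; inhibitors lower the luminescence signal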
[17] = molecular target: T6, Polyadenylate-binding protein 1 (Homo sapiens, UniProt P11940); assay: MLLE domain peptide-binding blockers, IC50 – biochemical, fluorescence polarization, FITC-PAM2 peptide, dose response (AID 602259); format: functional; conditions: read-out: IC50_Mean
T6 sequence (P11940 whole entry, the tested form may be a part): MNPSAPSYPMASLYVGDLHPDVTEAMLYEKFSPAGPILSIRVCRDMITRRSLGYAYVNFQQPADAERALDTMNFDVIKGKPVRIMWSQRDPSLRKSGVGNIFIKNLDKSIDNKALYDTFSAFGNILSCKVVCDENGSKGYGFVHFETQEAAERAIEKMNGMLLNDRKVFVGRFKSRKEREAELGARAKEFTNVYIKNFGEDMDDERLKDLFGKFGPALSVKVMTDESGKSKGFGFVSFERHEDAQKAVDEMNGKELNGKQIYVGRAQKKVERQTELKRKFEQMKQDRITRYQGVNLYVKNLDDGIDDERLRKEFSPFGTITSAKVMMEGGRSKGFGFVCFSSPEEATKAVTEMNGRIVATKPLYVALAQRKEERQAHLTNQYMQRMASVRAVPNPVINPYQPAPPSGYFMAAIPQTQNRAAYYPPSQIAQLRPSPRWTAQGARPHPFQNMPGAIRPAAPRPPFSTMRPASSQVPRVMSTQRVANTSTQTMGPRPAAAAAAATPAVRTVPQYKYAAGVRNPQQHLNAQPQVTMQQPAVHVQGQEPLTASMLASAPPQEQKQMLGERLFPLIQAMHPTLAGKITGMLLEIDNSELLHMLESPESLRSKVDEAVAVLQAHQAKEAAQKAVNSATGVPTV

[18] = molecular target: Genome polyprotein (dengue virus type 2, UniProt P29990); assay: flavivirus cap methylation enzyme inhibition – biochemical, confirmation dose response, primary screen (AID 588689); format: functional
[19] = molecular target: Beta-arrestin-1 (Homo sapiens, UniProt P49407); assay: beta-arrestin/AP2 interaction blockers, potency – biochemical, cherry pick 1, beta2-adaptin appendage, flow cytometry, dose response (AID 588783); format: functional
[20] = molecular target: T7, Beta-galactosidase (Escherichia coli, UniProt Q8VNN2); assay: detection-enzyme interference by beta-gal modulators – biochemical, E. coli enzyme, set 3, artefact control for CCR6 antagonist project, dose response (AID 504712); format: functional
T7 sequence (Q8VNN2 whole entry): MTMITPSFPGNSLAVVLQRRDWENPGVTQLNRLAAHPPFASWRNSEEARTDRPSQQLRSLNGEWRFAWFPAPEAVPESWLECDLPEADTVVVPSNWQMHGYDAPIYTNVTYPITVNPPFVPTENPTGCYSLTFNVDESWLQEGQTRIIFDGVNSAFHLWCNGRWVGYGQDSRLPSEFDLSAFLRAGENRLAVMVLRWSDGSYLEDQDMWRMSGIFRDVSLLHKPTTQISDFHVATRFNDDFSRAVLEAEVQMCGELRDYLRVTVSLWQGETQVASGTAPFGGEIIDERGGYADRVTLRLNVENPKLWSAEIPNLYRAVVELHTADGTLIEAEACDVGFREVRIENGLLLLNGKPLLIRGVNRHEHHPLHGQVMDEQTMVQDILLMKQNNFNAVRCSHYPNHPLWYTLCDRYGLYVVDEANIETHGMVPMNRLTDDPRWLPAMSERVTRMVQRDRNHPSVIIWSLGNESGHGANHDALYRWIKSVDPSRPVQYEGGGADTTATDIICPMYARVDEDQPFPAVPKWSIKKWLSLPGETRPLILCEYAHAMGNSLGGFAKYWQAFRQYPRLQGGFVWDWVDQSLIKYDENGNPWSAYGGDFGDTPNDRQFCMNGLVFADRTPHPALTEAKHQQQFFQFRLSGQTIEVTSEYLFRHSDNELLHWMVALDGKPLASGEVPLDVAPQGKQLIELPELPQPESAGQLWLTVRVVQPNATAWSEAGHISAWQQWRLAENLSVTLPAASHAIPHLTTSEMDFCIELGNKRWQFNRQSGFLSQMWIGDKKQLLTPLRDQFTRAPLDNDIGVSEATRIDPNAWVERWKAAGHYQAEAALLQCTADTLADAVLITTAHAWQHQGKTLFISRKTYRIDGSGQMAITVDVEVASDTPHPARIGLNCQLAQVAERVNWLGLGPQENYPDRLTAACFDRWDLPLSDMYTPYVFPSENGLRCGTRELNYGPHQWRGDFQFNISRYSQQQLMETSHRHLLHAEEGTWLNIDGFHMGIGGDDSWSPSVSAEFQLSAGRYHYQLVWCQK

[21] = molecular target: T6, Polyadenylate-binding protein 1; assay: MLLE binding blockers, Cy5 peptide tracer – biochemical, fluorescence polarization, Cy5-PAM2 peptide, secondary, miRNA deadenylation inhibitor project, dose response (AID 602260); format: functional; conditions: read-out: IC50_Mean
[22] = molecular target: Epstein-Barr nuclear antigen 1 (Epstein-Barr virus (strain B95-8) (HHV-4) (Human herpesvirus 4), UniProt P03211); assay: inhibition of EBV nuclear antigen 1 DNA binding – biochemical, fluorescence polarization, 1536-well, dose response (AID 2381); parameters: species or system human gammaherpesvirus 4;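 also: fluorescence polarization of a Cy5 DNA probe bound by EBNA-1 protein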
Chain of Epstein-Barr nuclear antigen 1 (P03211 whole entry): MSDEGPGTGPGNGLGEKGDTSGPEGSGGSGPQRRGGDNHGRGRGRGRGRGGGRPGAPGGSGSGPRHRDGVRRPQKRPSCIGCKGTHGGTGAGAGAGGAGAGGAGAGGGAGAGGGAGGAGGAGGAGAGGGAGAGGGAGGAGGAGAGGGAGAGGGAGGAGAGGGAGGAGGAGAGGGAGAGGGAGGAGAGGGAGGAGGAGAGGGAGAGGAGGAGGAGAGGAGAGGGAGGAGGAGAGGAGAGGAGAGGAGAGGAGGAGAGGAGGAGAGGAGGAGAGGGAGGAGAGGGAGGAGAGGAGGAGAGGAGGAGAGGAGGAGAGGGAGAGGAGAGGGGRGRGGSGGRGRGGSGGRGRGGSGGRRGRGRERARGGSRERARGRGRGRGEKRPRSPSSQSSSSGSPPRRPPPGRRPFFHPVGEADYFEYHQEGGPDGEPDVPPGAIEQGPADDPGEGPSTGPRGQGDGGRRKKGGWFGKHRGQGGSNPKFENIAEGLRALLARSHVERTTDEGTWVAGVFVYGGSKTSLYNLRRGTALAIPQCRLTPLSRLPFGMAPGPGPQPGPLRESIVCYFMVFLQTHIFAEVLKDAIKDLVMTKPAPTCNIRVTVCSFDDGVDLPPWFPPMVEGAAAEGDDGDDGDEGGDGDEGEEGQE

[23] = molecular target: T7, Beta-galactosidase; assay: PubChem AID 485352; format: functional
[24] = molecular target: Type-1 angiotensin II receptor (Homo sapiens, UniProt P30556); assay: antagonism of angiotensin II type 1 receptor – cell-based, uHTS hits, selectivity assay for APJ receptor antagonist project, dose response (AID 463214); format: functional;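 also: antagonist potency against angiotensin II stimulated AT1 response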
[25] = molecular target: Lytic switch protein BZLF1 (Epstein-Barr virus (strain B95-8) (HHV-4) (Human herpesvirus 4), UniProt P03206); assay: inhibition of BZLF1 ZTA DNA binding – biochemical, fluorescence polarization, Epstein-Barr virus, 1536-well, counter-screen for EBNA-1 inhibitor project, dose response (AID 2377); parameters: species or system human gammaherpesvirus 4;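 also: fluorescence polarization of Cy5-labelled ZRE DNA probe bound by purified Zta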
Chain of Lytic switch protein BZLF1 (P03206 whole entry): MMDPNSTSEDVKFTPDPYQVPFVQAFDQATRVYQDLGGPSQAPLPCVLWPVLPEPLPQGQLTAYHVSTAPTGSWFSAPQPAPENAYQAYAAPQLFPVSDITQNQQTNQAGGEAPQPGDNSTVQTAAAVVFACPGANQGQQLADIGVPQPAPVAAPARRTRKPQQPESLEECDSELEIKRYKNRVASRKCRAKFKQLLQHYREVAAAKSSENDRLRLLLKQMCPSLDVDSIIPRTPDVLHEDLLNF

[26] = test system: Jurkat; assay: SAR Analysis of small molecule inhibitors of […] specific antigen receptor-induced NF-kB activation in a Jurkat cell line using a luminescence assay - Set 3. [Related pubchem assays (depositor defined):AID435022, AID435025, AID465]; format: functional, cell-based; conditions: Homo sapiens
[27] = test system: HEK293; assay: HEK293T cell viability loss, resazurin readout – resazurin fluorescence, cytotoxicity control for NF-kB activator project, SAR follow-up (AID 493251); format: functional, cell-based; conditions: Homo sapiens
[28] = test system: HEK293; assay: SAR Analysis of small molecule inhibitors of B-cell specific antigen receptor-induced NF-kB activation in a HEK-293T cell line using a luminescence assay - Set 2. [Related pubchem assays (depositor defined):AID435022, AID435025, AID489021]; format: functional, cell-based; conditions: Homo sapiens

Nc1cc2ccncc2c2ccccc12
AC50 [1]: 1.23 µM (active) | AC50 [2]: 14.2 µM (active) | AC50 [3]: 9.97 µM (active) | AC50 [4]: 11.8 µM (active)

OC(CNCc1ccc(Cl)c(Cl)c1)c1ccccc1 (stereo not drawn)
EC50 [5]: 19 µM (active) | EC50 [6]: > 112 µM (not active) | IC50 [7]: 9.81 µM (active) | IC50 [8]: 14.5 µM (active)

COc1ccc(-n2c(-c3cccc(C)c3[N+](=O)[O-])n[nH]c2=S)cc1
EC50 [9]: > 180 µM (inactive) | EC50 [10]: > 150 µM (inactive) | IC50 [11]: 23.8 µM (active)

O=C1C(Cl)=C(NC(=O)c2ccccc2)C(=O)C(Cl)=C1NC(=O)c1ccccc1
IC50 [12]: 17.3 µM (active) | EC50 [13]: 2.78 µM (active) | CC50 [14]: 29.5 µM (active) | IC50 [15]: 6.06 µM (active) | EC50 [16]: 2.13 µM (active) | IC50 [17]: > 66 µM (inactive) | IC50 [18]: 3.53 µM (active) | IC50 [19]: 4.97 µM (active) | IC50 [20]: > 66.6 µM (inactive) | IC50 [21]: 44.5 µM (inactive)

CC(C)C(=O)Nc1cccc(C(=O)OCC(=O)c2ccc(Cl)cc2Cl)c1
IC50 [22]: 11.3 µM (not active) | EC50 [23]: > 40 µM (inactive) | IC50 [24]: > 40 µM (not active) | IC50 [25]: > 111 µM (not active)

CNC(=O)CCc1nc(-c2ccc(Cl)cc2)no1
IC50 [26]: > 80 µM (inactive) | IC50 [27]: > 80 µM (inactive) | IC50 [28]: > 80 µM (inactive)
